Experimental data from ChEMBL document CHEMBL3112576, “Synthesis and biological evaluation of a new series of ebselen derivatives as glutathione peroxidase (GPx) mimics and cholinesterase inhibitors against Alzheimer's disease” (Bioorg Med Chem, 2014).
Calls of active or inactive are those of the source. No cut-off for these calls is given here.

Columns and labels:
[1] = GPx-like activity of the compound using 3 mM GSH/H2O2 as substrate assessed as GSH-mediated H2O2 reduction at 80 uM at pH 7.5 measured for 10 secs by spectrophotometric analysis; assay type: physicochemical; conditions: pH 7.5, 10 s
[2] = GPx-like activity of the compound using GSH/1.4 mM H2O2 as substrate assessed as GSH-mediated H2O2 reduction at 80 uM at pH 7.5 measured for 10 secs by spectrophotometric analysis; assay type: physicochemical; conditions: pH 7.5, 10 s
Acetylcholinesterase [3] = biological target: Acetylcholinesterase (Electrophorus electricus, UniProt O42275)
Description: Inhibition of electric eel acetylcholinesterase using acetylthiocholine chloride as substrate preincubated for 15 mins followed by substrate addition by Ellman's method

[4] = GPx-like activity of the compound using GSH/1.2 mM H2O2 as substrate assessed as GSH-mediated H2O2 reduction at 80 uM at pH 7.5 measured for 10 secs by spectrophotometric analysis; assay type: physicochemical; conditions: pH 7.5, 10 s
[5] = GPx-like activity of the compound using variable GSH/H2O2 as substrate assessed as catalytic efficiency by Lineweaver-burk plot analysis; assay type: physicochemical
[6] = GPx-like activity of the compound using 1.5 mM GSH/H2O2 as substrate assessed as GSH-mediated H2O2 reduction at 80 uM at pH 7.5 measured for 10 secs by spectrophotometric analysis; assay type: physicochemical; conditions: pH 7.5, 10 s
[7] = GPx-like activity of the compound using 2 mM GSH/H2O2 as substrate assessed as GSH-mediated H2O2 reduction at 80 uM at pH 7.5 measured for 10 secs by spectrophotometric analysis; assay type: physicochemical; conditions: pH 7.5, 10 s
[8] = GPx-like activity of the compound using variable GSH/H2O2 as substrate by Lineweaver-burk plot analysis; assay type: physicochemical
[9] = GPx-like activity of the compound using 4 mM GSH/H2O2 as substrate assessed as GSH-mediated H2O2 reduction at 80 uM at pH 7.5 measured for 10 secs by spectrophotometric analysis; assay type: physicochemical; conditions: pH 7.5, 10 s
[10] = GPx-like activity of the compound using GSH/variable H2O2 as substrate by Lineweaver-burk plot analysis; assay type: physicochemical
[11] = GPx-like activity of the compound using GSH/variable H2O2 as substrate assessed as catalytic efficiency by Lineweaver-burk plot analysis; assay type: physicochemical
[12] = GPx-like activity of the compound using GSH/0.8 mM H2O2 as substrate assessed as GSH-mediated H2O2 reduction at 80 uM at pH 7.5 measured for 10 secs by spectrophotometric analysis; assay type: physicochemical; conditions: pH 7.5, 10 s
[13] = Antioxidant activity assessed as H2O2 scavenging activity at 50 to 200 uM after 10 hrs by ferrous ion oxidation-xylenol orange assay; assay type: functional
Acetylcholinesterase [14] = biological target: Acetylcholinesterase (Homo sapiens, UniProt P22303); assay: Inhibition of human erythrocyte acetylcholinesterase using acetylthiocholine chloride as substrate preincubated for 15 mins followed by substrate addition by Ellman's method
[15] = GPx-like activity of the compound using GSH/1.6 mM H2O2 as substrate assessed as GSH-mediated H2O2 reduction at 80 uM at pH 7.5 measured for 10 secs by spectrophotometric analysis; assay type: physicochemical; conditions: pH 7.5, 10 s
[16] = GPx-like activity of the compound using GSH/1 mM H2O2 as substrate assessed as GSH-mediated H2O2 reduction at 80 uM at pH 7.5 measured for 10 secs by spectrophotometric analysis; assay type: physicochemical; conditions: pH 7.5, 10 s
[17] = GPx-like activity of the compound using 1 mM GSH/H2O2 as substrate assessed as GSH-mediated H2O2 reduction at 80 uM at pH 7.5 measured for 10 secs by spectrophotometric analysis; assay type: physicochemical; conditions: pH 7.5, 10 s
Cholinesterase = Cholinesterase (Equus caballus, UniProt P81908)
Sequence of Cholinesterase (P81908 whole entry): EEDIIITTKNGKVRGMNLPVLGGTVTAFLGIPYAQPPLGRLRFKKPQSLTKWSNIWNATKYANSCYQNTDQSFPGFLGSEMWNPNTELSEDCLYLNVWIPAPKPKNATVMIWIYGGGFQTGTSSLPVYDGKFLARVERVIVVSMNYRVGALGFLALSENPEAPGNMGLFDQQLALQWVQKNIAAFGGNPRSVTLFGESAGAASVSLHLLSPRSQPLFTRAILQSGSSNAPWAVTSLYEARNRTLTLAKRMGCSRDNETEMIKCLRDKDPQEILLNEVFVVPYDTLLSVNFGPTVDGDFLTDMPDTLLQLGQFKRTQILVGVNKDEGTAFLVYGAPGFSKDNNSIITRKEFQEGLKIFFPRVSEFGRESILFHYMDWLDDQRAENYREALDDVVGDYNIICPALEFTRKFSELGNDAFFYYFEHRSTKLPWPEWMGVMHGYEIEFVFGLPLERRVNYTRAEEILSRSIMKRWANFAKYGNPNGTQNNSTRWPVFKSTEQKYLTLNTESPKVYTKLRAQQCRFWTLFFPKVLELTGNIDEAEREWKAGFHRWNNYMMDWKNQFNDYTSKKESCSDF
Description: Inhibition of equine serum butyrylcholinesterase using butyrylthiocholine chloride as substrate preincubated for 15 mins followed by substrate addition by Ellman's method

Sequence of Acetylcholinesterase (Homo sapiens, UniProt P22303) (P22303 whole entry): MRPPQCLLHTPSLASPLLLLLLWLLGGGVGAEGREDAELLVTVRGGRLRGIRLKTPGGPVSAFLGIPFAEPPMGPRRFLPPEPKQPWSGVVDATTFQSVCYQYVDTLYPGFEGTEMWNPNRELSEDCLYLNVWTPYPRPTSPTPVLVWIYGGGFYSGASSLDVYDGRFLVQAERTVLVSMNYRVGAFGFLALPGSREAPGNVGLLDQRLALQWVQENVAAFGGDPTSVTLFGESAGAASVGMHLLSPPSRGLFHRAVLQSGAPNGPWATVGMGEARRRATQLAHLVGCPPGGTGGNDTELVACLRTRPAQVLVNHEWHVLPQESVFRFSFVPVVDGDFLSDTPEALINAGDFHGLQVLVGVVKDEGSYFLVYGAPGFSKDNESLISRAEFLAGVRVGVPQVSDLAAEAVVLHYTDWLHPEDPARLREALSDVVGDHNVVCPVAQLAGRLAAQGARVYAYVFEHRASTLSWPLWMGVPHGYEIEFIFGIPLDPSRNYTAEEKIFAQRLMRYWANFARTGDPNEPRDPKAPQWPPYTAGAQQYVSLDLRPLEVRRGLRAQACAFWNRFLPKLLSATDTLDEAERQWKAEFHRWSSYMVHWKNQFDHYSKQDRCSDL
Sequence of Acetylcholinesterase (Electrophorus electricus, UniProt O42275) (O42275 whole entry): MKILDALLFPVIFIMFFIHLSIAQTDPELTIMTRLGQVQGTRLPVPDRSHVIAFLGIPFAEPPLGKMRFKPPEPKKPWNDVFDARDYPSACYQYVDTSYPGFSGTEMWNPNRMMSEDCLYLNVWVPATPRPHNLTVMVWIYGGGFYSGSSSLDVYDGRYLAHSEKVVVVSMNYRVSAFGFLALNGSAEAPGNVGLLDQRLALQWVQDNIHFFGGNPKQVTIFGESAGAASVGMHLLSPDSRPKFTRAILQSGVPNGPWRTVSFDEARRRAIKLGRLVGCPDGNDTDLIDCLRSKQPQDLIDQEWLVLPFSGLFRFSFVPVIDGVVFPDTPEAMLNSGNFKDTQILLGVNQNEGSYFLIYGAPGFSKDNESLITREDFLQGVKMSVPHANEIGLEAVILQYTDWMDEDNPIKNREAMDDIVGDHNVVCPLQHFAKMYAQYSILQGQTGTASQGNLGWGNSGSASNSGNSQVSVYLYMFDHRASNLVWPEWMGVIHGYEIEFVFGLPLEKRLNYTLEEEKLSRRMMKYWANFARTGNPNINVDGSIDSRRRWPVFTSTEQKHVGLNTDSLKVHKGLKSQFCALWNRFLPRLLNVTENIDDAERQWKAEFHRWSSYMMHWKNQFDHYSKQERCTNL

Structure (SMILES) | Activity [1] | Activity [2] | IC50 (Acetylcholinesterase [3]) | Activity [4] | Activity [5] | Activity [6] | Activity [7] | Kcat [8] | Vmax [8] | Activity [9] | Kcat [10] | Vmax [10] | Activity [11] | Activity [12] | Activity [13] | IC50 (Acetylcholinesterase [14]) | Activity [15] | Activity [16] | Activity [17] | IC50 (Cholinesterase)
COc1cc2[se]n(-c3ccc(OCCN4CCCCC4)cc3)c(=O)c2cc1OC | 150.13 µM/min | 109.83 µM/min | 0.46 µM | 98.87 µM/min | 1.4 mM⁻¹ min⁻¹ | 110.89 µM/min | 126.72 µM/min | 0.0577 s⁻¹ | 276.24 µM/min | 164.86 µM/min | 0.066 s⁻¹ | 316.46 µM/min | 0.74 mM⁻¹ min⁻¹ | 53.36 µM/min | Active | 0.45 µM | 122.64 µM/min | 76.93 µM/min | 77.43 µM/min | 9.69 µM
COc1cc2[se]n(-c3ccc(CCN4CCCC4)cc3)c(=O)c2cc1OC | – | – | 4.32 µM | – | – | – | – | – | – | – | – | – | – | – | – | 13.9 µM | – | – | – | > 15 µM
O=c1c2ccccc2[se]n1-c1ccc(CCN2CCCC2)cc1 | – | – | > 15 µM | – | – | – | – | – | – | – | – | – | – | – | – | > 15 µM | – | – | – | 6.38 µM
COc1cc2[se]n(-c3ccc(CN4CCCCC4)cc3)c(=O)c2cc1OC | 166.44 µM/min | 132.29 µM/min | 0.76 µM | 121.72 µM/min | 1.63 mM⁻¹ min⁻¹ | 130.27 µM/min | 147.84 µM/min | 0.0643 s⁻¹ | 308.64 µM/min | 185.66 µM/min | 0.1812 s⁻¹ | 869.57 µM/min | 1.45 mM⁻¹ min⁻¹ | 81.43 µM/min | Active | 1.44 µM | 150.53 µM/min | 109.44 µM/min | 88.35 µM/min | > 15 µM
COc1cc2[se]n(-c3ccc(OCCCCN4CCCCC4)cc3)c(=O)c2cc1OC | – | – | 4.32 µM | – | – | – | – | – | – | – | – | – | – | – | – | 3.41 µM | – | – | – | 5.72 µM
COc1cc2[se]n(-c3ccc(CN4CCCC4)cc3)c(=O)c2cc1OC | – | – | 1.06 µM | – | – | – | – | – | – | – | – | – | – | – | – | 4.31 µM | – | – | – | 13.4 µM
COc1cc2[se]n(-c3ccc(CN(C)Cc4ccccc4)cc3)c(=O)c2cc1OC | – | – | 1.71 µM | – | – | – | – | – | – | – | – | – | – | – | – | > 15 µM | – | – | – | 3.62 µM
O=c1c2ccccc2[se]n1-c1ccc(OCCN2CCCCC2)cc1 | – | – | 5.66 µM | – | – | – | – | – | – | – | – | – | – | – | – | 10.9 µM | – | – | – | 1.97 µM
COc1cc2[se]n(-c3ccc(CCN4CCCCC4)cc3)c(=O)c2cc1OC | – | – | 3.87 µM | – | – | – | – | – | – | – | – | – | – | – | – | 10.5 µM | – | – | – | > 15 µM
COc1cc2[se]n(-c3ccc(OCCCN4CCCCC4)cc3)c(=O)c2cc1OC | – | – | 4.5 µM | – | – | – | – | – | – | – | – | – | – | – | – | 5.15 µM | – | – | – | 5.8 µM
O=c1c2ccccc2[se]n1-c1ccc(CN2CCCCC2)cc1 | – | – | 2.36 µM | – | – | – | – | – | – | – | – | – | – | – | – | 10.8 µM | – | – | – | 5.56 µM
O=c1c2ccccc2[se]n1-c1ccccc1 [EBSELEN] | 166.44 µM/min | 119.01 µM/min | > 15 µM | 107.82 µM/min | 1.64 mM⁻¹ min⁻¹ | 130.27 µM/min | 152.18 µM/min | 0.0642 s⁻¹ | 307.69 µM/min | 183.19 µM/min | 0.0393 s⁻¹ | 188.68 µM/min | 2.85 mM⁻¹ min⁻¹ | 92.43 µM/min | Active | > 15 µM | 125.93 µM/min | 105.89 µM/min | 88.35 µM/min | 10.6 µM
